Earlier results in article PMC10329699, “Pharmacokinetics, biodistribution and toxicology of novel cell-penetrating peptides” (Scientific Reports, 2023).
Like-named read-outs stand apart in the source and are kept apart here.

How the values were obtained:
[1] = literature values for comparison
From the text: Considering their smaller size (up to 30 amino acids in length), cationic and/or amphipathic CPPs have a greater potential to penetrate the BBB than other transport systems. […] For the sake of comparison, a control IgG, an IgG binding ...

OC[C@H]1OC(O)[C@H](O)[C@@H](O)[C@@H]1O (stereo partly drawn) [glucose]
Clup (brain uptake coefficient), comparison values [1]: ≈ 1 µl g^−1 s^−1

penetratin
half-life (stability in human serum) (human): 1.2 h

TAT
half-life (stability in human serum) (in vitro at 37 °C in human serum): 8.8 h
